Our source for the TGI values is PubChem BioAssay (NCI).

Each structure is given as a SMILES string.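 Where inhibition never reached the appropriate level, the endpoint shown equals the highest concentration tested. Otherwise, values were interpolated linearly from a five-concentration, 48-hour dose response in 96-well plates. Definition used: TGI = concentration required for complete inhibition of growth.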

Assay in all cases: growth of human tumour cells (NCI), 48 h
The subject of assay [1] is DLD-1 colon.
Assay [2] has as its system DMS 114 small cell lung.
In assay [3] the test system is DMS 273 small cell lung.
Assay [4] relates to HOP-18 NSCLC.
Assay [5] concerns KM20L2 colon.
Assay [6] deals with M19-MEL melanoma.
The test system of assay [7] is SNB-78 CNS.
Assay [8] concerns XF 498 CNS.
For assay [9], the system named is RXF-631 renal.

On to `O=C1[C@@H]2C(c3ccccc3[N+](=O)[O-])=[N+](c3ccccc3)O[C@@H]2C(=O)N1c1ccc(Cc2ccc(N3C(=O)[C@H]4C(c5ccccc5[N+](=O)[O-])=[N+](c5ccccc5)O[C@H]4C3=O)cc2)cc1`, for which the TGI in assay [1], in assay [2], in assay [3], in assay [4], in assay [5] and in [6] was above 100 µM in each case. Also, in assay [7], the TGI is above 100 µM.
For `OCCCNc1ccnc2cc(Cl)ccc12`, the TGI in [1], in assay [2], in assay [4], in assay [5], in assay [6] and in [7] was above 100 µM each time. The TGI in assay [8] was above 100 µM.
For `Cc1cc(C)n(-c2ccnc3cc(Cl)ccc23)n1`, the TGI in assay [1], in assay [2], in assay [3], in assay [4], in assay [5] and in assay [6] was above 100 µM in each case. Further, the TGI in assay [7] and in assay [8] was above 100 µM each time.
For `C(=N\Nc1ccccc1)/c1nc2ccccc2nc1/C=N/Nc1ccccc1`, the TGI was determined as 40.9 µM in assay [1]; 26.5 µM in assay [5]; 41.1 µM in [6]; 27.6 µM in assay [9]; 42.7 µM in assay [7].
`Clc1ccc(CCn2cncn2)cc1`: the TGI in assay [1], in [2], in assay [3], in [4], in assay [5] and in [6] was above 100 µM each time. Moreover, in [7], the TGI was above 100 µM.
For the molecule `O=C1CC2(CCC3=C(O2)c2ccccc2NC(=O)C3)C(=O)c2ccccc2N1` (stereo not drawn), the TGI in assay [2], in assay [3], in assay [5], in [6], in assay [7] and in assay [8] was above 100 µM throughout.
Take `O=C(c1nc2ccccc2[nH]c1=O)C(O)c1ccco1` (stereo not drawn): the TGI in [2], in assay [3], in [5], in [6], in assay [7] and in assay [8] was above 100 µM throughout.
As for `NC(=O)/C(=N\NC(=O)C[n+]1ccccc1)C1NC(=O)NC1=O` (stereo not drawn), the TGI in assay [1], in assay [2], in assay [3], in [4], in [5] and in assay [6] was above 100 µM throughout. The TGI in assay [9], in [7] and in assay [8] was above 100 µM each time.
Turning to `O=c1c2ccccc2nc2n1-c1ccccc1SC2`, the TGI in assay [1], in assay [2], in assay [3], in [5], in [6] and in assay [9] was above 100 µM each time. The results for the TGI in assay [7] and in [8] were above 100 µM and 91.3 µM, respectively.
As for `N#CC1=C(c2ccccc2)C(=C2Nc3ccccc3N2)C2S/C(=C\c3ccccc3)C(=O)N2C1=N` (stereo not drawn), the TGI was 12 µM in [1]; 4.64 µM in assay [2]; 4.9 µM in [3]; 6.56 µM in assay [5]; 7.97 µM in assay [6]; 6.86 µM in [7]. Further, the TGI in assay [8] amounted to 5.57 µM.
For `CCOC(=O)C(C(=O)OCC)c1ccc([N+](=O)[O-])o1`, the TGI in assay [1] came to 18.6 µM; in [3] it was 33.4 µM; in [4] it was 34.2 µM; in [5], 36.8 µM; in [6], 33.2 µM; in assay [7], 34.8 µM. The TGI in assay [8] came out at 31 µM.
With `COc1ccc(Cc2c(=O)[nH]nc3ccccc23)cc1`, the TGI in [1], in assay [2], in assay [3], in [4], in [5] and in [6] was above 100 µM in each case. For the same molecule, the TGI in [9], in [7] and in assay [8] was above 100 µM throughout.
As to `C=CCN1COc2c(cc3c4c(cccc24)C(=O)O3)C1`, the TGI is 66.2 µM in assay [1]; 35 µM in assay [2]; above 100 µM in assay [3]; above 100 µM in assay [4]; above 100 µM in assay [5]; 37.4 µM in assay [6]. This molecule registered a TGI in assay [8] of 37.8 µM.
As for `C/C(CC(=O)Nc1cc(C)ccc1C)=N/N=C(N)N`, the TGI in assay [1], in assay [2], in assay [3], in assay [5], in assay [6] and in [7] was above 100 µM throughout. In assay [8], this molecule showed a TGI above 100 µM.
On to `CCOC(=O)Cc1csc(Nc2ccc(OCC)cc2)n1`, for which the TGI in assay [1], in assay [2], in assay [4], in assay [5], in assay [6] and in assay [9] was above 100 µM each time. The TGI in assay [7] and in assay [8] was above 100 µM each time.
As for `CCCCC(C(=O)CCC(=O)Nc1ccc(Cl)c(Cl)c1)C(=O)C(C)C` (stereo not drawn), the TGI in assay [1], in assay [2], in [3], in [4], in [5] and in assay [6] was above 100 µM each time. The same molecule showed a TGI in assay [7] above 100 µM.
For the molecule `COc1cc(O)c2c(c1)O[C@@H]1OCC[C@H]21`, the TGI in assay [1], in assay [2], in [3], in [4], in assay [5] and in [7] was above 100 µM each time. Also, the TGI in [8] is above 100 µM.
On to `O=C(c1ccccc1)C(c1ccccc1)C1(O)C(=O)Nc2ccc([N+](=O)[O-])cc21` (stereo not drawn), for which the TGI in assay [1] was above 100 µM; in [2] it was 79.3 µM; in [5], above 100 µM; in assay [6] it was 72.2 µM; in [9] it was above 100 µM; in [7], above 100 µM. The molecule also gave a TGI in assay [8] above 100 µM.
For the molecule `O=[N+]([O-])c1cc([N+](=O)[O-])c(/C=C/c2ccc(Cl)c(Cl)c2)cc1/C=C/c1ccc(Cl)c(Cl)c1`, the TGI in [2] was 68.1 µM; in assay [3], 96.4 µM; in assay [5] it was 81 µM; in assay [6] it was 46.1 µM; in [7] it was above 100 µM.
Take `O=C1C=CC2(C=C1)CCNC1=C2C(=O)c2ccccc2C1=O`: the TGI in [1], in [2], in assay [3], in [5], in assay [6] and in assay [9] was above 100 µM in each case. In addition, in assay [8], the TGI was above 100 µM.
Turning to `O=C(O)COc1ccc(C(=O)/C(SS/C(C(=O)c2ccc(OCC(=O)O)c(Cl)c2Cl)=C2\C=C(c3ccc(Cl)cc3)SS2)=C2/C=C(c3ccc(Cl)cc3)SS2)c(Cl)c1Cl`, the TGI is 24.6 µM in assay [1]; 32.7 µM in [3]; 23 µM in assay [4]; 54.5 µM in [5]; 20.6 µM in [6]; above 100 µM in [9]. This molecule also showed a TGI in [7] of 25.5 µM.
With `Cc1nc(N2N=C(c3ccc(Cl)cc3)CCC2=O)sc1[N+](=O)[O-]`, the TGI in assay [1], in assay [2], in assay [3], in assay [4], in assay [5] and in assay [6] was above 100 µM each time. Moreover, the TGI in assay [7] and in assay [8] was above 100 µM each time.
With `O=C1C=CC(=O)c2c1ccc1c3ccccc3n(-c3ccccc3)c21`, the TGI in [1] worked out at 6.99 µM; in assay [2], 40.4 µM; in assay [3] it was 32.1 µM; in assay [4], 20.7 µM; in [5] it was 36.9 µM; in assay [6], 36.1 µM. The TGI in assay [9] was determined as 82.2 µM; in [7] it was 53.8 µM; in assay [8], 20.1 µM.
With `N#Cc1cc([N+](=O)[O-])ccc1NC(=O)/C(=N\NC(=O)c1ccncc1)C(c1cnc2ccc([N+](=O)[O-])cc2n1)[N+](=O)[O-]` (stereo not drawn), the TGI in assay [2] came out at 3.1 µM; in [3], 6.59 µM; in assay [4] it was 2.87 µM; in assay [5] it was 25.1 µM; in assay [6], 1.69 µM; in [9], 5.13 µM. In addition, the TGI in assay [7] was found to be 21.6 µM; in assay [8] it was 3.17 µM.
